In general, melting point refers to the temperature, or range, at which the solid turns liquid. In general, Ki refers to the dissociation constant of the complex between target and ligand, obtained from inhibition or displacement.

The text below walks through data of patent US9458124B2, “Substituted pyran derivatives” (Wayne State University, priority 2013, dated 2016).

The target of data set [1] is T1, NET (Rattus norvegicus, UniProt Q63380).
T1 construct: from tissue; host or cells: rat brain
Put plainly: NET uptake inhibition, [3H]DA, rat brain. In kind it is biochemical. The following applies: number in parentheses within cell.

Data set [2] has as its target T2, SERT (Rattus norvegicus, UniProt P31652).
T2 construct: from tissue; host or cells: rat brain
As to the kind of experiment: SERT uptake inhibition, [3H]-5-HT, rat brain. Format: biochemical. The following applies: number in parentheses within cell.

Data set [3] addresses T3, DAT (Rattus norvegicus, UniProt P23977).
T3 construct: from tissue; host or cells: rat brain
Put plainly: DAT uptake inhibition, [3H]DA, rat brain. In kind it is biochemical. The settings on record: number in parentheses within cell.

Where a name gives a salt, the structure may show the parent alone.

T1 sequence (Q63380 1-617): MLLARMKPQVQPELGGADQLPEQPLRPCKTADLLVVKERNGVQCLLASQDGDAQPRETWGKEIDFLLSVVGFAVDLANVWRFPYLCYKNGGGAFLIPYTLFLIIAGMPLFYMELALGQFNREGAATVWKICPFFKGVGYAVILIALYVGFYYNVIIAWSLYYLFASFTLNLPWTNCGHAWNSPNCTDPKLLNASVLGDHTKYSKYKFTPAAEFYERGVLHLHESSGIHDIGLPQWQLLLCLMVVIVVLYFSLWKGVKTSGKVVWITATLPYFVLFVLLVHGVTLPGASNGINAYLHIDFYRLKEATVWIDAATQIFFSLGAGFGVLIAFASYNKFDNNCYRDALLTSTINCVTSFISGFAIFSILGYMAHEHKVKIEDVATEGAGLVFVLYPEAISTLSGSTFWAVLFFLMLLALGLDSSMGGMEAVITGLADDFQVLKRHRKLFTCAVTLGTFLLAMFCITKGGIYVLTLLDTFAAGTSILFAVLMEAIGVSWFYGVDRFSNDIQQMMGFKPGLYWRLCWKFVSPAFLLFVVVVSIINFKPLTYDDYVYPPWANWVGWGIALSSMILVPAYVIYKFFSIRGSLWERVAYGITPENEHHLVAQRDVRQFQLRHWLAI
T2 sequence (P31652 whole entry): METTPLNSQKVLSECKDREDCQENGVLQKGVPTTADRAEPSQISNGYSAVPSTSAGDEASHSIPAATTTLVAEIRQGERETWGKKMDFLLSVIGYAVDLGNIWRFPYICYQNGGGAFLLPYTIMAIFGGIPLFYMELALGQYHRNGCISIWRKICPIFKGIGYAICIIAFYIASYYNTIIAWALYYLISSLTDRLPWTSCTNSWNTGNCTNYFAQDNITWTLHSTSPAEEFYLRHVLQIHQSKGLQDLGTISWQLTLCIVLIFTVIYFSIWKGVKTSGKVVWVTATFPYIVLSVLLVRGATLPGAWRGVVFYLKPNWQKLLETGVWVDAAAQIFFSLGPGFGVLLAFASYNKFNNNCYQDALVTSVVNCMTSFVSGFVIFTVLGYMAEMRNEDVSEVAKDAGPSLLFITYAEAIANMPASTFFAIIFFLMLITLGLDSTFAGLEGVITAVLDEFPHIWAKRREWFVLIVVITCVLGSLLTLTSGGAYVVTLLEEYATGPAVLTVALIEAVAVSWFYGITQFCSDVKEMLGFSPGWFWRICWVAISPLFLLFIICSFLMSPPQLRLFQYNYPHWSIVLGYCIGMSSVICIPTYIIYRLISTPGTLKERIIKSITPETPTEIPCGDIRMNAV
T3 sequence (P23977 whole entry): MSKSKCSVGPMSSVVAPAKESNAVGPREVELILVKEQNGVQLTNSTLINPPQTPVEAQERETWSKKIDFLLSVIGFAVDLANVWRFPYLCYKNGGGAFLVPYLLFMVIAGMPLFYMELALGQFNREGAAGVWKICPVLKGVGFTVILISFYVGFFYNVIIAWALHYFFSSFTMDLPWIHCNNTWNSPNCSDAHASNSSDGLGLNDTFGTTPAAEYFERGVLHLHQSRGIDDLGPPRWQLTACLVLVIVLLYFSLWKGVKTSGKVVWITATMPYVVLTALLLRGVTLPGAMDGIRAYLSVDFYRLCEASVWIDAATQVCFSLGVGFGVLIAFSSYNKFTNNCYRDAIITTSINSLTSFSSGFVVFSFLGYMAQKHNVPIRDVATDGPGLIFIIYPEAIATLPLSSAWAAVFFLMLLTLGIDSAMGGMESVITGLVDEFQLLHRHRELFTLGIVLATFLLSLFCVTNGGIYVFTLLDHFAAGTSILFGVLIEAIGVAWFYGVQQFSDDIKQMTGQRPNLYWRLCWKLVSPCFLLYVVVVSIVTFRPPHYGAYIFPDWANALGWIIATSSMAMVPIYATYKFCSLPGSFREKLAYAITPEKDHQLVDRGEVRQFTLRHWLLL

Regarding `c1ccc(C(c2ccccc2)[C@@H]2CC[C@H](NCc3ccc4occc4c3)CO2)cc1` (as salt: hydrochloride) [2a, D-484, (3S,6S)-6-benzhydryl-N-(benzofuran-5-ylmethyl)tetrahydro-2H-pyran-3-amine], the melting point is 140 to 142 °C. Same read-out and setting: to `O[C@@H]1C[C@@H](C(c2ccccc2)c2ccccc2)OC[C@H]1NCc1ccc2occc2c1` (as salt: hydrochloride) [4a, D-485, (2S,4R,5R)-2-benzhydryl-5-((benzofuran-5-ylmethyl)amino)tetrahydro-2H-pyran-4-ol] belongs 204 to 206 °C; to `COc1cc(CN[C@@H]2CO[C@H](C(c3ccccc3)c3ccccc3)C[C@H]2O)ccc1O` (as salt: hydrochloride) [4c, D-501, (2S,4R,5R)-2-benzhydryl-5-((4-hydroxy-3-methoxybenzyl)amino)tetrahydro-2H-pyran-4-ol], 203 to 205 °C. Same read-out and setting: in the case of `COc1ccc(CN[C@@H]2CO[C@H](C(c3ccccc3)c3ccccc3)C[C@H]2O)cc1O` (as salt: hydrochloride) [4d, D-502, (2S,4R,5R)-2-benzhydryl-5-((3-hydroxy-4-methoxybenzyl)amino)tetrahydro-2H-pyran-4-ol] it was 168 to 170 °C.

Regarding `COc1cc(O)cc(CN[C@@H]2CO[C@H](C(c3ccccc3)c3ccccc3)C[C@H]2O)c1` (as salt: hydrochloride) [4e, D-503, (2S,4R,5R)-2-benzhydryl-5-((3-hydroxy-5-methoxybenzyl)amino)tetrahydro-2H-pyran-4-ol], the melting point fell in the range of 160 to 162 °C. On the same count and under the same terms, in the case of `Oc1cc(O)cc(CN[C@@H]2CO[C@H](C(c3ccccc3)c3ccccc3)C[C@H]2O)c1` (as salt: hydrochloride) [4f, D-542, 5-((((3R,4R,6S)-6-benzhydryl-4-hydroxytetrahydro-2H-pyran-3-yl)amino)methyl)benzene-1,3-diol] it was 168 to 170 °C; in that of `COc1cccc(CN[C@@H]2CO[C@H](C(c3ccccc3)c3ccccc3)C[C@H]2O)c1` (as salt: hydrochloride) [4g, D-523, (2S,4R,5R)-2-benzhydryl-5-((3-methoxybenzyl)amino)tetrahydro-2H-pyran-4-ol], 197 to 199 °C; in that of `c1ccc(C(c2ccccc2)[C@@H]2CC[C@H](NCc3ccc4cc[nH]c4c3)CO2)cc1` (as salt: oxalate) [2b, D-543], 194 to 196 °C.

In turn, `O[C@@H]1C[C@@H](C(c2ccccc2)c2ccccc2)OC[C@H]1NCc1ccc2cc[nH]c2c1` (as salt: oxalate) [4b, D-544, (2S,4R,5R)-5-(((1H-indol-6-yl)methyl)amino)-2-benzhydryltetrahydro-2H-pyran-4-ol] gave a melting point of 152 to 154 °C. For the compound `c1ccc(C(c2ccccc2)[C@@H]2CC[C@H](NCc3ccc4occc4c3)CO2)cc1` [2a, D-484, (3S,6S)-6-benzhydryl-N-(benzofuran-5-ylmethyl)tetrahydro-2H-pyran-3-amine], the Ki in data set [1] came to 25.2 ± 5.3 nM; in data set [2], 0.71 ± 0.085 nM; in data set [3], 81.9 ± 17.9 nM. For `c1ccc(C(c2ccccc2)[C@@H]2CC[C@H](NCc3ccc4cc[nH]c4c3)CO2)cc1` [2b, D-543] the same measures were 20.8 ± 4.6 nM, 13.6 ± 1.6 nM and 56.3 ± 1.1 nM.

As to `O[C@@H]1C[C@@H](C(c2ccccc2)c2ccccc2)OC[C@H]1NCc1ccc2occc2c1` [4a, D-485, (2S,4R,5R)-2-benzhydryl-5-((benzofuran-5-ylmethyl)amino)tetrahydro-2H-pyran-4-ol], the Ki is 33.6 ± 18.7 nM in data set [1], 2.68 ± 0.094 nM in data set [2] and 234 ± 11 nM in data set [3]. For `O[C@@H]1C[C@@H](C(c2ccccc2)c2ccccc2)OC[C@H]1NCc1ccc2cc[nH]c2c1` [4b, D-544, (2S,4R,5R)-5-(((1H-indol-6-yl)methyl)amino)-2-benzhydryltetrahydro-2H-pyran-4-ol] the same measures were 10 ± 3.5 nM, 9.6 ± 2.57 nM and 64 ± 6.1 nM. With `COc1cc(CN[C@@H]2CO[C@H](C(c3ccccc3)c3ccccc3)C[C@H]2O)ccc1O` [4c, D-501, (2S,4R,5R)-2-benzhydryl-5-((4-hydroxy-3-methoxybenzyl)amino)tetrahydro-2H-pyran-4-ol], in data set [3], the inhibition constant (Ki) was 167 ± 36 nM. As to `COc1ccc(CN[C@@H]2CO[C@H](C(c3ccccc3)c3ccccc3)C[C@H]2O)cc1O` [4d, D-502, (2S,4R,5R)-2-benzhydryl-5-((3-hydroxy-4-methoxybenzyl)amino)tetrahydro-2H-pyran-4-ol], the Ki in data set [2] amounted to 281 ± 37 nM; in data set [3] it was 58.6 ± 11.8 nM.

Regarding `COc1cc(O)cc(CN[C@@H]2CO[C@H](C(c3ccccc3)c3ccccc3)C[C@H]2O)c1` [4e, D-503, (2S,4R,5R)-2-benzhydryl-5-((3-hydroxy-5-methoxybenzyl)amino)tetrahydro-2H-pyran-4-ol], the Ki in data set [2] was 385 ± 42 nM; in data set [3], 209 ± 25 nM.

Regarding `Oc1cc(O)cc(CN[C@@H]2CO[C@H](C(c3ccccc3)c3ccccc3)C[C@H]2O)c1` [4f, D-542, 5-((((3R,4R,6S)-6-benzhydryl-4-hydroxytetrahydro-2H-pyran-3-yl)amino)methyl)benzene-1,3-diol], the inhibition constant (Ki) in data set [1] came to 152 ± 29 nM; in data set [2], 3020 nM; in data set [3] it was 259 ± 44 nM.

Turning to `COc1cccc(CN[C@@H]2CO[C@H](C(c3ccccc3)c3ccccc3)C[C@H]2O)c1` [4g, D-523, (2S,4R,5R)-2-benzhydryl-5-((3-methoxybenzyl)amino)tetrahydro-2H-pyran-4-ol], the Ki in data set [1] worked out at 5.85 ± 1.27 nM; in data set [2] it was 27.2 ± 3 nM; in data set [3], 376 ± 68 nM. On the same counts, the results for `COc1ccc(CN[C@@H]2CO[C@H](C(c3ccc(F)cc3)c3ccc(F)cc3)C[C@H]2O)cc1` [6a, D-473, (2S,4R,5R)-2-(bis(4-fluorophenyl)methyl)-5-((4-methoxybenzyl)amino)tetrahydro-2H-pyran-4-ol] are 13.2 ± 3.5 nM, 46.7 ± 17 nM and 13.3 ± 2 nM.

With `O[C@@H]1C[C@@H](C(c2ccc(F)cc2)c2ccc(F)cc2)OC[C@H]1NCc1ccc2c(c1)OCO2` [6b, D-506, (2S,4R,5R)-5-((benzo[d][1,3]dioxol-5-ylmethyl)amino)-2-(bis(4-fluorophenyl)methyl)tetrahydro-2H-pyran-4-ol], the inhibitory constant (Ki) in data set [3] came to 37 ± 7.5 nM. For `O[C@@H]1C[C@@H](C(c2ccc(F)cc2)c2ccc(F)cc2)OC[C@H]1NCc1ccc2c(c1)CCO2` [6c, D-507, (2S,4R,5R)-2-(bis(4-fluorophenyl)methyl)-5-(((2,3-dihydrobenzofuran-5-yl)methyl)amino)tetrahydro-2H-pyran-4-ol], the Ki in data set [1] came out at 25.8 ± 5 nM; in data set [2] it was 54 ± 7.8 nM; in data set [3], 17 nM. On the same counts, the results for `O[C@@H]1C[C@@H](C(c2ccc(F)cc2)c2ccc(F)cc2)OC[C@H]1NCc1ccc2occc2c1` [6d, D-508, (2S,4R,5R)-5-((benzofuran-5-ylmethyl)amino)-2-(bis(4-fluorophenyl)methyl)tetrahydro-2H-pyran-4-ol] are 26.5 ± 6.6 nM, 68.4 ± 11.4 nM and 29.3 ± 2.4 nM. For the compound `COc1cccc(CN[C@@H]2CO[C@H](C(c3ccc(F)cc3)c3ccc(F)cc3)C[C@H]2O)c1` [6e, D-524, (2S,4R,5R)-2-(bis(4-fluorophenyl)methyl)-5-((3-methoxybenzyl)amino)tetrahydro-2H-pyran-4-ol], the values for the Ki in data set [2] and in data set [3] were 129 ± 25 nM and 56.8 ± 7.6 nM, respectively. As for `COc1cc(O)cc(CN[C@@H]2CO[C@H](C(c3ccc(F)cc3)c3ccc(F)cc3)C[C@H]2O)c1` [6g, D-526, (2S,4R,5R)-2-(bis(4-fluorophenyl)methyl)-5-((3-hydroxy-5-methoxybenzyl)amino)tetrahydro-2H-pyran-4-ol], the Ki was 577 ± 94 nM in data set [2] and 25.6 ± 5.8 nM in data set [3]. As to `COc1cc(CN[C@@H]2CO[C@H](C(c3ccc(F)cc3)c3ccc(F)cc3)C[C@H]2O)ccc1O` [6h, D-527, (2S,4R,5R)-2-(bis(4-fluorophenyl)methyl)-5-((4-hydroxy-3-methoxybenzyl)amino)tetrahydro-2H-pyran-4-ol], the inhibitory constant (Ki) in data set [2] came to 107 ± 11 nM; in data set [3] it was 8.94 ± 2.2 nM. For `COc1ccc(CN[C@@H]2CO[C@H](C(c3ccc(F)cc3)c3ccc(F)cc3)C[C@H]2O)cc1O` [6i, D-528, (2S,4R,5R)-2-(bis(4-fluorophenyl)methyl)-5-((3-hydroxy-4-methoxybenzyl)amino)tetrahydro-2H-pyran-4-ol] the same measures were 367 ± 52 nM and 7.94 ± 0.66 nM. `Nc1ccc(CN[C@@H]2CO[C@H](C(c3ccc(F)cc3)c3ccc(F)cc3)C[C@H]2O)cc1` [6k, D-529, (2S,4R,5R)-5-((4-aminobenzyl)amino)-2-(bis(4-fluorophenyl)methyl) tetrahydro-2H-pyran-4-ol]: the Ki in data set [2] came out at 339 ± 39 nM; in data set [3], 24.5 ± 1.2 nM. For `CCNc1ccc(CN[C@@H]2CO[C@H](C(c3ccc(F)cc3)c3ccc(F)cc3)C[C@H]2O)cc1` [6m, D-530, (2S,4R,5R)-2-(bis(4-fluorophenyl)methyl)-5-((4-(ethylamino)benzyl)amino) tetrahydro-2H-pyran-4-ol], the Ki in data set [2] came to 320 ± 40 nM. Regarding `Oc1ccc(CN[C@@H]2CO[C@H](C(c3ccc(F)cc3)c3ccc(F)cc3)C[C@H]2O)cc1F` [6n, D-531, (2S,4R,5R)-2-(bis(4-fluorophenyl)methyl)-5-((3-fluoro-4-hydroxybenzyl)amino) tetrahydro-2H-pyran-4-ol], the Ki in data set [2] amounted to 334 ± 54 nM. With `CN(C)c1ccc(CN[C@@H]2CO[C@H](C(c3ccc(F)cc3)c3ccc(F)cc3)C[C@H]2O)cc1` [6o, D-536, (2S,4R,5R)-2-(bis(4-fluorophenyl)methyl)-5-((4-(dimethylamino)benzyl)amino)tetrahydro-2H-pyran-4-ol], the figures for the Ki in data set [1], in data set [2] and in data set [3] were 56.6 ± 5.2 nM, 144 ± 26 nM and 41.3 ± 9.7 nM, respectively. For `COc1ccc(CN[C@@H]2CO[C@H](C(c3ccc(F)cc3)c3ccc(F)cc3)C[C@H]2O)cn1` [6p, D-537, (2S,4R,5R)-2-(bis(4-fluorophenyl)methyl)-5-(((6-methoxypyridin-3-yl)methyl)amino)tetrahydro-2H-pyran-4-ol] the same measures were 28.4 ± 4 nM, 258 ± 26 nM and 20.1 ± 5.3 nM.
